SMILES strings stand for the structures.

The nature of this series: Human HepG2 cell viability assay in 384 well format. It is filed as toxicity, cell-based. Set-up: dose 125 nL, time 70.5 hour; concentration not given beside the values. Particulars: HepG2 cells, read-out: Inhibition.
`Nc1nc2c(c(NCc3nc(-c4ccncc4)n[nH]3)n1)CCCC2`: the cytotoxicity at 70.5 h is -0.22%.
Under `Cc1c[nH]c(C2COCCN2C(=O)CCc2c(C)n[nH]c2C)n1` (configuration not stated) stands -9.97%; under `CC(C)n1cc2cc(NC(=O)Cn3cnnn3)ccc2n1`, -7.92%; under `CN(C)C(=O)CN1C[C@@H]2CC[C@H](C1)N(Cc1c(Cl)cncc1Cl)C2`, -9.62%.
In the case of `CCc1csc(C2CCCN(C(=O)c3ccncc3)C2)n1` (configuration not stated), the cytotoxicity at 70.5 h is -5.33%.
Under `Cc1cc(C(=O)N2CCCC2c2nnc3n2CCCCC3)no1` (configuration not stated) stands -7.37%; under `COc1cc2c(cc1CNCc1cccnc1OC)OC(C)C2` (configuration not stated), -8.84%; under `Cc1ccccc1OC(C(=O)N1CCC2(CC1)CN(C)C(=O)O2)C(C)C` (configuration not stated), -4.56%.
Under `CC(C)COc1cncc(NCc2nnc3ccccn23)n1` stands -3.83%; under `O=C(N1CCCC(n2cncn2)C1)C1(c2cccc(F)c2)CCCC1` (configuration not stated), 16.5%; under `COC[C@@]12CC[C@@H](N3CCOCC3)C[C@H]1CCN(c1ncccc1F)C2`, -6.47%.
Under `O=S1(=O)CCC(n2cc(CNc3ccccc3Br)cn2)C1` (configuration not stated) stands 31.4%.
In the case of `O=C(Nc1cccn(Cc2ccc(F)cc2)c1=O)c1csnn1`, the cytotoxicity at 70.5 h was -0.164%.
Under `Cc1cccn2c(=O)cc(CN3CCCCC3Cn3cncn3)nc12` (configuration not stated) stands 7.36%; under `O=C(C1CCOCC1)N1CCO[C@H]2[C@H](OCc3ccncc3)CC[C@@H]21`, -9.92%.
Then `COCC1c2nnn(CC3CC3)c2CCN1C(=O)c1sccc1C` (configuration not stated), with -11.5%; and `CCc1nnc(CN2CCC(C3CCCCCN3C(=O)C3CC3)CC2)o1` (configuration not stated), with -1.17%.
Under `CN(C)C(C(=O)N1CCN(CC(F)(F)F)CC1)c1ccccc1F` (configuration not stated) stands -1.96%; under `Cc1ccc(CN(C)C(=O)CCn2c(=O)n(C)c3ccccc32)o1`, -6.04%.
As for `CS(=O)(=O)NCC1CCCN(Cc2ccc(F)c3cccnc23)C1` (configuration not stated), the cytotoxicity at 70.5 h was -12.2%.
Then `CCOc1ccc2[nH]c(=O)c(CN3CCC(N4CCCC4)CC3)cc2c1`, with -4.41%; and `Cc1cc(C)c2[nH]c(=O)c(CN3CCCC(O)(CO)C3)cc2c1` (configuration not stated), with -13.5%.
Under `O=C(Cc1c[nH]c(=O)[nH]c1=O)N1CCC2(CCC(=O)N(C3CC3)C2)CC1` stands 0.183%; under `O=C(Cc1cccnc1)NCCSc1ccccc1F`, -11.1%; under `c1cn(CC2CC2)c(C2CCN(CCC3CCOC3)CC2)n1` (configuration not stated), 21.7%.
Then `NC(=O)c1cncc(-n2ccc(-c3cnccn3)n2)c1`, with -8.7%; and `CC1=C[C@@H](CNS(C)(=O)=O)[C@H](C(C)C)C[C@H]1CC(=O)NCCN(C)C`, with 1.17%.
Take `CC(NC(=O)NCCCc1n[nH]c(N)c1C#N)c1cccs1` (configuration not stated): the cytotoxicity at 70.5 h is 44.5%.
Then `CC(C)N(C)C(=O)C1=NOC2(CCN(C(=O)NCc3cccnc3)C2)C1` (configuration not stated), with -9.91%.
Then `O=S(=O)(NCC1COCCO1)c1ccc(C2CCCCC2)cc1` (configuration not stated), with -4.34%.
On to `Cc1ccc(-c2nc(CC(=O)NCC3CCCN(C(C)C)C3)cs2)o1` (configuration not stated), for which the cytotoxicity at 70.5 h was 11.1%.
`Cc1ccsc1CN1CCC(c2cc(C(C)C)n[nH]2)CC1`: the cytotoxicity at 70.5 h is -3.28%.
Consider `CN(C)CC1(O)CCCN(c2noc(-c3ccccc3)n2)CC1` (configuration not stated), for which the cytotoxicity at 70.5 h was found to be 6.79%.
Then `COC1CCCN(c2nc(C)nc3c2CCN(Cc2ccco2)CC3)C1` (configuration not stated), with 8.06%; and `O=C(c1cn(CC(=O)N2CCCCCC2)c2ccccc12)C1CC1`, with -7.67%; and `O=C(CN1CCC(c2ccccc2)C1)NC(=O)NCC(F)(F)F` (configuration not stated), with 21.4%.
Then `CCCOC1Sc2nnc(C)n2N=C1c1ccccc1` (configuration not stated), with -9.6%; and `Cn1cc(C2CC(=O)NC23CCN(Cc2ccncc2)CC3)cn1` (configuration not stated), with 13.9%; and `CC(C)NC(=O)CN(C)C(=O)c1c(Br)c2ccccc2n1C`, with -4.11%.
Then `NC1(C(=O)N2CCC(c3cc(-c4ccccc4Cl)n[nH]3)CC2)CCC1`, with 46.9%.
In the case of `c1ccc(C2CN(C3CC3)CC3(CCN(Cc4cscn4)CC3)C2)cc1` (configuration not stated), the cytotoxicity at 70.5 h was -5.25%.
Then `Cc1nn(C)c2ncnc(N(C)CC3CCN(CC(C)C)C3)c12` (configuration not stated), with -2.77%; and `O=S1(=O)N(c2ccccc2)C[C@@H](O)[C@]12CCNC2`, with -3.92%.
On to `CCC(CO)NC(=O)Nc1ccc(OCC(F)(F)F)c(C)c1` (configuration not stated), for which the cytotoxicity at 70.5 h is -1.78%.
In the case of `CCn1ncc2c1C(COCC1CC1)CN(S(=O)(=O)N(C)C)C2` (configuration not stated), the cytotoxicity at 70.5 h was -7.75%.
For the compound `CCc1cc(=O)n(CCNC(=O)Nc2ccc(OC(F)(F)F)cc2)cn1`, the cytotoxicity at 70.5 h is -3.46%.
Then `CC(Nc1nccc(CCC(F)(F)F)n1)c1nc(-c2ccncc2)no1` (configuration not stated), with -13.3%; and `CC(=O)N1CCN([C@@H]2CCC[C@@H](N(C)C(=O)C3CC3)[C@H]2O)CC1`, with -1.88%; and `OC1(c2ccccc2F)CCN(Cc2ccccc2N2CCCC2)CC1`, with 12.6%.
As for `Cc1cc(Cn2cc(C#N)c(=O)c3ccccc32)no1`, the cytotoxicity at 70.5 h was -5.19%.
On to `Cc1cc2[nH]c(=O)oc2cc1S(=O)(=O)N1C[C@@H](N(C)C)[C@H](C(C)C)C1`, for which the cytotoxicity at 70.5 h was -10.7%.
For the compound `Cc1cc(C)n(C2CN(CC(=O)N(C)Cc3ccsc3)C2)n1`, the cytotoxicity at 70.5 h was -1.75%.
With `CCc1nc2c(c(NC3CCC3)n1)CCN(C(=O)CO)CC2`, the cytotoxicity at 70.5 h was found to be 0.47%.
Under `CC(C)c1noc(CN(Cc2ccccc2)C2CC2)n1` stands 0.0143%; under `CC(C)N(C)Cc1nnc2n1CCN(CC1CC1)CC2`, -0.138%.
Then `N[C@@H]1c2ccccc2C2(CCN(c3cnc4ccccc4n3)CC2)[C@H]1O`, with -9.08%; and `Cc1ccc2snc(C(=O)N3CCN(C(=O)NCCC(C)C)CC3)c2c1`, with -6.08%; and `O=C(CCN1CCOCC1)N1CCC(Cc2ccc(CO)cc2)C1` (configuration not stated), with -2.12%.
Under `O=C(CN1CCN(C(=O)c2ccccc2)CC1)Nc1ccc(Br)cn1` stands -8.87%; under `COCCCN(Cc1cnc(-c2cccs2)nc1)C1CCN(C)CC1`, -12%; under `NC(=O)NC(=O)Cn1ccc2sccc2c1=O`, -5.03%.
As for `O=C(NCCc1ccn(-c2ccccc2)n1)N1CCCC(CO)C1` (configuration not stated), the cytotoxicity at 70.5 h came out at 1.65%.
Then `Cc1nc2c(c(NCC(c3cccnc3)N3CCOCC3)n1)CCNC2` (configuration not stated), with -15.5%.
As to `Cc1cc(O)cc(C2CCCN2C(=O)c2ccn(C)n2)n1` (configuration not stated), the cytotoxicity at 70.5 h is 10.2%.
Under `CCC(C)NC(=O)Cn1c(Nc2cc(C)cc(C)c2)nc(C)cc1=O` (configuration not stated) stands 0.214%; under `Cc1nn(C)c(C)c1CN(C)c1nc(C2CCCC2)nc2c1cnn2C`, 8.68%.
Under `Cc1cc(N2CCC(N3CCOCC3)C2)n2nc(C)c(C)c2n1` (configuration not stated) stands -4.03%; under `Cn1nnc2c1C(COCC1CC1)CN(C(=O)Cc1ccsc1)C2` (configuration not stated), -0.74%; under `Cn1ccnc1CN1CCN(Cc2ccncc2)[C@@H]2CS(=O)(=O)C[C@@H]21`, -13.6%.
Consider `COCCNCC1(O)CCCN(Cc2ccc(F)c(F)c2)C1=O` (configuration not stated), for which the cytotoxicity at 70.5 h is -2.23%.
Under `CCCN1CCC[C@]2(CCC(=O)N2Cc2ccncc2)[C@H]1CC` stands -4.44%; under `CN(Cc1cccnc1)c1nc(-c2ccccn2)nc2c1CCNCC2`, -5.18%; under `Cc1cc(C)n(C(=O)c2cn(C)nc2S(=O)(=O)N2CCSCC2)n1`, -7.57%.
Then `Cc1nc2cc(=O)[nH]n2c(C)c1CNC(=O)C(C)(C)c1ccccc1`, with -1.88%; and `COCCCNc1cc(C(=O)N2CCOCC2)ccc1C`, with -17.5%.
Under `c1ccc(NC[C@@H]2CCC[C@@H]3CN(Cc4nccs4)C[C@@H]32)nc1` stands -0.385%.
As to `COCCN1C[C@@H]2CCCO[C@@H]2[C@H](NC(=O)c2cnccn2)C1`, the cytotoxicity at 70.5 h was -0.647%.
Under `Cn1nc(C2CC2)c2c1NC(=O)CC2c1ccc(CN2CCCCC2)s1` (configuration not stated) stands -3.05%; under `CC(=O)N1CCC2(CC1)c1ncc(-c3ccccc3)n1CCN2C`, -9.38%; under `Cc1nc(N2CCC(O)(c3ccc(F)cc3)CC2)c2c(C)nn(C)c2n1`, -3.16%.
Turning to `CCN1CCCC(O)(CNCc2ccc3c(c2)OCO3)C1` (configuration not stated), the cytotoxicity at 70.5 h is -10.3%.
On to `COCC(=O)Nc1ccc(-c2noc([C@@H]3CCCN3)n2)cn1`, for which the cytotoxicity at 70.5 h was -0.348%.
Then `COc1cc(CNC(C)c2cccc(Cl)c2)cc(OC)c1OC` (configuration not stated), with -9.01%; and `Cc1cc(C)cc(NC(=O)CC2CN(Cc3ccccc3)CCO2)c1` (configuration not stated), with -4.17%.
With `COc1cc(C(=O)N2CCCS2(=O)=O)ccc1OC(C)C`, the cytotoxicity at 70.5 h turned out to be 21.8%.
Then `N#Cc1ccc(SCCC(=O)O)cc1`, with -7.41%.
Take `Cc1n[nH]c(C)c1CNC(=O)N1CCCC(Cc2nccn2C)C1` (configuration not stated): the cytotoxicity at 70.5 h came out at 0.74%.
Then `CC(=O)N1CCN(Cc2ccc(OCc3nccn3C)cc2)CC1`, with -8.75%; and `CCN1CCN(Cc2ccnc(-c3cccnc3)n2)CC1`, with -2.52%; and `CC(C)CN1CCC(NC(=O)c2ccc(F)cc2F)CC1`, with 0.0411%.
For the compound `COCc1ncn2c1CN(S(=O)(=O)c1cccc(OC)c1)CC2`, the cytotoxicity at 70.5 h was found to be 8.77%.
Under `CCc1noc(Cn2c(=O)c3c(C(F)(F)F)cc(C)nc3n2C)n1` stands 19.2%; under `Cn1ccc(CN2CCC(NC(=O)Cc3ccccc3)CC2)cc1=O`, 2.35%.
Then `CN1CCC(C(=O)N2CCC(=Cc3cccc(F)c3)CC2)CC1=O` (configuration not stated), with 16.2%.
For the compound `CN1CCCN(C[C@@H]2CN(C(=O)CC3CCC3)C[C@@H]2CO)CC1`, the cytotoxicity at 70.5 h is -2.25%.
Then `Cc1cnn(CC2CN(Cc3nc(-c4ccccn4)no3)CCO2)c1` (configuration not stated), with 2.23%; and `CCN1CCC(NC(=O)Cn2cc(C)c3ccccc32)CC1`, with 8.33%.

The record behind these values is ChEMBL document CHEMBL3507680, “University of Dundee, Gates Library screen for HepG2 cell viability”.
